Laboratory results: ChEMBL document CHEMBL3044718, “Effect of phenolic compounds on growth and ligninolytic enzyme production in Botryosphaeria isolates” (2013)
Values after ≈ are worked out from the molar mass of the structure shown. Active and inactive are the calls of the source. The calls are words filed in the database; no cut-off is given here.

Key:
[1] = test system: Lasiodiplodia theobromae; assay: Decrease in Lasiodiplodia theobromae ligninolytic enzyme production assessed as pectinase activity using pectin as substrate at 25 mM measured at 28 degC after 4 days; assay type: functional; conditions: 96 h
[2] = test system: Botryosphaeria dothidea; assay: Inhibition of Botryosphaeria dothidea mycelium growth measured at 28 degC after 4 days; assay type: functional
[3] = test system: Diplodia seriata; assay: Inhibition of Diplodia seriata (Schwein.) Shoemaker mycelium growth at 15 mM measured at 28 degC after 4 days; assay type: functional, organism-based
[4] = test system: Lasiodiplodia theobromae; assay: Inhibition of Lasiodiplodia theobromae mycelium growth at 25 mM measured at 28 degC after 4 days; assay type: functional; conditions: 96 h, read-out: GI
[5] = test system: Botryosphaeria dothidea; assay: Inhibition of Botryosphaeria dothidea mycelium growth at 25 mM measured at 28 degC after 4 days; assay type: functional; conditions: 96 h, read-out: GI
[6] = test system: Lasiodiplodia theobromae; assay: Decrease in Lasiodiplodia theobromae mycelium biomass production measured at 28 degC after 4 days by gravimetric analysis; assay type: functional
[7] = test system: Diplodia seriata; assay: Decrease in Diplodia seriata (Schwein.) Shoemaker mycelium biomass production measured at 28 degC after 4 days by gravimetric analysis; assay type: functional
[8] = test system: Neofusicoccum ribis; assay: Decrease in Neofusicoccum ribis ligninolytic enzyme production assessed as pectinase activity using pectin as substrate measured at 28 degC after 4 days; assay type: functional, organism-based
[9] = test system: Botryosphaeria dothidea; assay: Decrease in Botryosphaeria dothidea ligninolytic enzyme production assessed as laccase activity using ABTS as substrate at 5 mM measured at 28 degC after 4 days; assay type: functional
[10] = test system: Botryosphaeria dothidea; assay: Decrease in Botryosphaeria dothidea ligninolytic enzyme production assessed as pectinase activity using pectin as substrate at 1 mM measured at 28 degC after 4 days; assay type: functional, organism-based
[11] = test system: Botryosphaeria dothidea; assay: Decrease in Botryosphaeria dothidea ligninolytic enzyme production assessed as laccase activity using ABTS as substrate measured at 28 degC after 4 days; assay type: functional, organism-based
[12] = test system: Lasiodiplodia theobromae; assay: Decrease in Lasiodiplodia theobromae ligninolytic enzyme production assessed as laccase activity using ABTS as substrate at 1 mM measured at 28 degC after 4 days; assay type: functional; conditions: 96 h
[13] = test system: Diplodia seriata; assay: Inhibition of Diplodia seriata (Schwein.) Shoemaker mycelium growth measured at 28 degC after 4 days; assay type: functional
[14] = test system: Neofusicoccum ribis; assay: Inhibition of Neofusicoccum ribis mycelium growth measured at 28 degC after 4 days; assay type: functional
[15] = test system: Neofusicoccum ribis; assay: Inhibition of Neofusicoccum ribis mycelium growth at 25 mM measured at 28 degC after 4 days; assay type: functional; conditions: 96 h, read-out: GI
[16] = test system: Botryosphaeria dothidea; assay: Decrease in Botryosphaeria dothidea ligninolytic enzyme production assessed as laccase activity using ABTS as substrate at 15 mM measured at 28 degC after 4 days; assay type: functional, organism-based
[17] = test system: Lasiodiplodia theobromae; assay: Inhibition of Lasiodiplodia theobromae mycelium growth measured at 28 degC after 4 days; assay type: functional
[18] = test system: Neofusicoccum ribis; assay: Decrease in Neofusicoccum ribis mycelium biomass production at 25 mM measured at 28 degC after 4 days by gravimetric analysis; assay type: functional; conditions: 96 h
[19] = test system: Diplodia seriata; assay: Inhibition of Diplodia seriata (Schwein.) Shoemaker mycelium growth at 25 mM measured at 28 degC after 4 days; assay type: functional; conditions: 96 h, read-out: GI
[20] = test system: Diplodia seriata; assay: Decrease in Diplodia seriata (Schwein.) Shoemaker ligninolytic enzyme production assessed as pectinase activity using pectin as substrate at 1 mM measured at 28 degC after 4 days; assay type: functional, organism-based
[21] = test system: Neofusicoccum ribis; assay: Inhibition of Neofusicoccum ribis mycelium growth at 20 mM measured at 28 degC after 4 days; assay type: functional, organism-based
[22] = test system: Botryosphaeria dothidea; assay: Inhibition of Botryosphaeria dothidea mycelium growth at 20 mM measured at 28 degC after 4 days; assay type: functional, organism-based
[23] = test system: Lasiodiplodia theobromae; assay: Inhibition of Lasiodiplodia theobromae mycelium growth at 20 mM measured at 28 degC after 4 days; assay type: functional; conditions: 96 h, read-out: GI
[24] = test system: Neofusicoccum ribis; assay: Inhibition of Neofusicoccum ribis mycelium growth at 15 mM measured at 28 degC after 4 days; assay type: functional, organism-based
[25] = test system: Lasiodiplodia theobromae; assay: Inhibition of Lasiodiplodia theobromae mycelium growth at 15 mM measured at 28 degC after 4 days; assay type: functional; conditions: 96 h, read-out: GI
[26] = test system: Neofusicoccum ribis; assay: Decrease in Neofusicoccum ribis ligninolytic enzyme production assessed as laccase activity using ABTS as substrate at 1 mM measured at 28 degC after 4 days; assay type: functional; conditions: 96 h
[27] = test system: Botryosphaeria dothidea; assay: Decrease in Botryosphaeria dothidea ligninolytic enzyme production assessed as laccase activity using ABTS as substrate at 1 mM measured at 28 degC after 4 days; assay type: functional
[28] = test system: Diplodia seriata; assay: Decrease in Diplodia seriata (Schwein.) Shoemaker ligninolytic enzyme production assessed as laccase activity using ABTS as substrate at 1 mM measured at 28 degC after 4 days; assay type: functional; conditions: 96 h
[29] = test system: Diplodia seriata; assay: Inhibition of Diplodia seriata (Schwein.) Shoemaker mycelium growth at 10 mM measured at 28 degC after 4 days; assay type: functional, organism-based
[30] = test system: Botryosphaeria dothidea; assay: Inhibition of Botryosphaeria dothidea mycelium growth at 10 mM measured at 28 degC after 4 days; assay type: functional, organism-based
[31] = test system: Botryosphaeria dothidea; assay: Decrease in Botryosphaeria dothidea ligninolytic enzyme production assessed as laccase activity using ABTS as substrate at 25 mM measured at 28 degC after 4 days; assay type: functional; conditions: 96 h
[32] = test system: Phellinus tremulae; assay: Inhibition of Phellinus tremulae mycelium growth; assay type: functional
[33] = test system: Diplodia seriata; assay: Decrease in Diplodia seriata (Schwein.) Shoemaker ligninolytic enzyme production assessed as pectinase activity using pectin as substrate at 15 mM measured at 28 degC after 4 days; assay type: functional, organism-based

Row | Structure (SMILES) | inhibition at 25000 µM [1] | MIC ([2]; 96 h) | growth inhibition (GI) [3] | inhibition of growth at 25000 µM [4] | inhibition (INH) [6] | inhibition (INH) [7] | inhibition [8] | inhibition [10] | inhibition [11] | inhibition at 1000 µM [12] | MIC ([13]; 96 h) | MIC ([14]; 96 h) | inhibition of growth at 25000 µM [15] | MIC ([17]; 96 h) | inhibition at 25000 µM [18] | growth inhibition (GI) [21] | other results
1 | COc1cc(C(=O)O)ccc1O [VANILLIC ACID] | 57% | 5 mM (≈ 841 µg/mL) | Active | 52% | 58% | 58% | inactive | inactive | Active | 58% | 5 mM (≈ 841 µg/mL) | 5 mM (≈ 841 µg/mL) | 83% | 5 mM (≈ 841 µg/mL) | 50% | – | inhibition of growth at 25000 µM [5]: 93%; inhibition [9]: inactive; inhibition [16]: Active
2 | COc1cccc(OC)c1C(=O)O [2,6-DIMETHOXYBENZOIC ACID] | 57% | 5 mM (≈ 911 µg/mL) | – | 62% | 58% | 58% | inactive | inactive | Active | 58% | 5 mM (≈ 911 µg/mL) | 5 mM (≈ 911 µg/mL) | 86% | 5 mM (≈ 911 µg/mL) | 50% | – | inhibition of growth at 25000 µM [5]: 95%; inhibition [9]: inactive; inhibition of growth at 25000 µM [19]: 95%
3 | COc1cc(C(=O)O)cc(OC)c1O [SYRINGIC ACID] | 57% | – | – | – | – | – | inactive | inactive | – | 58% | – | – | – | – | – | – | MIC [2]: inactive; inhibition [6]: inactive; inhibition [7]: inactive; inhibition [20]: Active; MIC [13]: inactive; MIC [14]: inactive; MIC [17]: inactive
4 | Oc1ccccc1O [CATECHOL] | 57% | 5 mM (≈ 551 µg/mL) | Active | – | 58% | 58% | inactive | inactive | – | 58% | 5 mM (≈ 551 µg/mL) | 5 mM (≈ 551 µg/mL) | – | 5 mM (≈ 551 µg/mL) | 100% | Active | growth inhibition (GI) [22]: Active; inhibition of growth at 20000 µM [23]: 100%
5 | COc1cccc(OC)c1O [SYRINGOL] | 57% | 5 mM (≈ 771 µg/mL) | Active | – | 58% | 58% | inactive | inactive | Active | 58% | 5 mM (≈ 771 µg/mL) | 5 mM (≈ 771 µg/mL) | – | 5 mM (≈ 771 µg/mL) | 50% | – | growth inhibition (GI) [24]: Active; inhibition of growth at 15000 µM [25]: 100%; growth inhibition (GI) [22]: Active
6 | O=C(O)/C=C/c1ccc(O)cc1 [COUMARIC ACID] | 57% | 5 mM (≈ 821 µg/mL) | – | 100% | 58% | 58% | inactive | inactive | Active | 71% | 5 mM (≈ 821 µg/mL) | 5 mM (≈ 821 µg/mL) | 81% | 5 mM (≈ 821 µg/mL) | – | – | inhibition at 1000 µM [26]: 71%; inhibition at 1000 µM ([27]; 96 h): 71%; inhibition at 1000 µM [28]: 71%; growth inhibition (GI) [29]: Active; growth inhibition (GI) [30]: Active
7 | O=C(O)c1ccccc1O [SALICYLIC ACID] | 57% | 5 mM (≈ 691 µg/mL) | Active | 100% | 58% | 58% | inactive | inactive | Active | 58% | 5 mM (≈ 691 µg/mL) | 5 mM (≈ 691 µg/mL) | – | 5 mM (≈ 691 µg/mL) | 50% | Active | inhibition [16]: Active
8 | COc1cc(/C=C/C(=O)O)ccc1O [FERULATE] | 57% | 5 mM (≈ 971 µg/mL) | Active | 81% | 58% | 58% | inactive | inactive | Active | 82% | 5 mM (≈ 971 µg/mL) | 5 mM (≈ 971 µg/mL) | 74% | 5 mM (≈ 971 µg/mL) | – | – | inhibition at 1000 µM [26]: 82%; inhibition at 5000 µM ([9]; 96 h): 90%
9 | O=C(O)c1ccccc1 [BENZOIC ACID] | 57% | 5 mM (≈ 611 µg/mL) | – | – | – | – | inactive | inactive | – | 58% | 5 mM (≈ 611 µg/mL) | 5 mM (≈ 611 µg/mL) | – | 5 mM (≈ 611 µg/mL) | 50% | Active | growth inhibition (GI) [29]: Active; inhibition at 25000 µM [31]: 96%; inhibition [20]: Active; MIC [32]: 800 µg/mL (≈ 6.55 mM); growth inhibition (GI) [30]: Active; inhibition of growth at 20000 µM [23]: 100%
10 | COc1ccccc1O [GUAIACOL] | 57% | 5 mM (≈ 621 µg/mL) | Active | – | 58% | 58% | inactive | – | Active | 58% | 5 mM (≈ 621 µg/mL) | 5 mM (≈ 621 µg/mL) | – | 5 mM (≈ 621 µg/mL) | – | Active | inhibition [27]: inactive; inhibition of growth at 15000 µM [25]: 100%; inhibition [33]: Active
